{"source": "patent EP4623911A1", "about": "“PI4KB INHIBITORS FOR THE TREATMENT OF FATTY LIVER DISEASE” (ETH Zurich, priority 2024, dated 2025)", "system": "mouse model of hepatic steatosis", "test": "HFD-induced hepatic steatosis (NAFLD) mouse model treated with UCB9608", "type": "in vivo, mice", "protocol": "Male mice were used for NAFLD induction via feeding on HFD. ROSA26-LSL-spCas9 mice were injected with AAV-U6-Cu/7 gRNAs-TBG-Cre and AAV-U6-Fbxw8 gRNAs-TBG-Cre virus pools at a dose of 3×10^11 genome copies/mouse and fed in HFD for 12 weeks and livers were harvested after 6 hours fasting. To study PI4KB in NAFLD progression, male ROSA26-LSL-spCas9 mice were fed in HFD for 12 weeks to induce fatty liver before induction of hepatocyte specific depletion of PI4KB via intravenous administration of AAV8. After another 8 weeks, mice were dissected to harvest liver after 6 hours fasting. Likewise, male C57BL/6N wild-type mice and liver specific Atgl knockout mice (AtglLKO) were challenged with HFD for 12 weeks to induce fatty liver prior to administration of UCB9608 mixed in HFD (5 mg/kg) for another 8 weeks. Then the mice were dissected to harvest tissues and sample blood after 6 hours fasting Atgl floxed mice (The Jackson Lab strain) were crossed with Albumin-Cre (The Jackson Lab strain) and Adip-CreERT2 strains to obtain Alb-Atgfl^fl/fl and AdipcreERT2-Atgl^fl/fl mice (Sitnick,M.T. et al, Diabetes 62, (2013)), which deplete ATGL protein in the liver and the adipose depots (induced after tamoxifen gavage), respectively. […]\nAdipose depots, liver pieces, differentiated iBAs, HepG2, HEK293T and HEK293-AAV cell types were homogenized in RIPA buffer (50 mM Tris-HCl pH 7.4, 150 mM NaCl, 2 mM EDTA, 1.0% Triton X100, 0.5% sodium deoxycholate) with protease inhibitors (Complete, Roche) and phosphatase inhibitors (Halt phosphatase inhibitor cocktail, ThermoFisher). […] The concentration of WCE was determined by DC Protein Assay (Bio-Rad). […]\nPlasma collected from mice under different conditions was used to determine levels of lipolysis and liver injury. FFA levels were measured via NEFA assay kit (Wako NEFA kit). TG levels were determined via TG assay kit (Roche Trig/GB reagent). […] The absorbance was monitored using Synergy Gen5 Platereader.\nWeight of liver pieces (50-100 mg) was recorded before homogenization by 1 mL isopropanol per 50 mg tissue. […]"}
{"smiles": "COc1ccc(NC(=O)N2CCN(c3nc(N)nc4c3cnn4C)[C@@H](C)C2)c(C)c1", "note": "[UCB9608]", "values": [{"measurement": "hepatic steatosis (hepatic TG levels)", "setting": "HFD 12 weeks, then UCB9608 in HFD (5 mg/kg) 8 weeks, requires ATGL in the liver", "result": "substantially attenuated"}, {"measurement": "ATGL protein levels in the iBAT, gWAT and liver", "setting": "UCB9608- vs DMSO-treated HFD mice", "result": "significantly greater"}, {"measurement": "plasma FFA levels", "setting": "wild-type mice, HFD 12 weeks, then UCB9608 in HFD (5 mg/kg) 8 weeks, vs DMSO", "result": "significantly increased"}]}
